According to patent US20240368163A1, “COMPOUNDS AND METHODS FOR MODULATING SPLICING” (REMIX THERAPEUTICS INC., priority 2021, published 2024):
Read-outs that look alike come from different tables or passages of the source.

Assays:
Type in all cases: cell-based, human
MYB [1] = assay: HiBiT protein abundance assay, MYB; settings: modified K562 cells
How it was run: (§1)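 K562 cells with endogenous HiBiT-tagged target were treated 24 h at 37 °C with compound (10-point 3-fold dilution, top 10 μM final, DMSO ≤0.25%). Lytic LgBiT luminescence was normalized to unmodified K562 (baseline) and DMSO-treated tagged cells; IC50 interpolated at 50% from four-parameter logistic fit.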

Target C [2] = assay: Splicing RT-qPCR panel, Target C canonical junction (CJ) mRNA; settings: read-out: Target C IC50 (decrease in CJ mRNA levels)
How it was run: (§2)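 A673 or K562 cells were treated 24 h at 37 °C with an 11-point 3-fold dilution series (top 10 uM final, DMSO ≤0.25%). Lysates underwent one-step RT-qPCR for canonical (CJ) and alternative (AJ) junctions; Ct normalized to GAPDH, GUSB or PPIA and DMSO control via 2^(−ΔΔCt), expressed as percentage response.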

Target C [3] = assay: HiBiT protein abundance assay, Target C; settings: modified K562 cells
How it was run: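 HiBiT knock-in K562-derived cells, 10000 cells/well, were treated 24 h at 37 °C with a 10-point 3-fold dilution series (top 10 μM final, DMSO ≤0.25%). Lytic HiBiT luminescence was normalized to unmodified K562 and DMSO controls; IC50 was interpolated at 50% from a four-parameter logistic fit.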

HTT [4] = assay: HiBiT protein abundance assay, HTT; settings: modified K562 cells
How it was run: as §1

HTT [5] = assay: Splicing RT-qPCR assay, HTT mRNA canonical junction (CJ) and alternative junction (AJ); settings: for AC50: increase in AJ mRNA
How it was run: as §2

SMN2 = assay: Splicing RT-qPCR panel, SMN2 canonical junction (CJ) mRNA; settings: read-out: SMN2 IC50 (decrease in CJ mRNA levels)
How it was run: as §2

MYB [6] = assay: Splicing RT-qPCR assay, MYB mRNA canonical junction (CJ) and alternative junction (AJ); settings: for AC50: increase in AJ mRNA
How it was run: as §2

[7] = Homo sapiens, K562, 24 h, Table 13A
[8] = Homo sapiens, RT-qPCR panel, canonical junction mRNA, compound concentration having 50% response in CJ decrease
[9] = Homo sapiens, 24 h, A673 or K562 cells, 24 hours treatment, RT-qPCR
[10] = Homo sapiens, RT-qPCR panel, canonical junction mRNA, compound concentration having 50% response in CJ decrease, read-out: HTT IC50 (decrease in CJ mRNA levels)
[11] = Homo sapiens, 24 h, decrease in CJ mRNA, A673 or K562 cells, 24 hours treatment, RT-qPCR, read-out: MYB CJ IC50
[12] = Homo sapiens, RT-qPCR panel, canonical junction mRNA, compound concentration having 50% response in CJ decrease, read-out: MYB IC50 (decrease in CJ mRNA levels)
[13] = Homo sapiens, K562, 24 h, Table 13B
[14] = Homo sapiens, gene panel, CJ qPCR, protocol of Example 142
[15] = Homo sapiens, gene panel, CJ qPCR, protocol of Example 142, read-out: HTT IC50 (decrease in CJ mRNA levels)
[16] = Homo sapiens, gene panel, CJ qPCR, protocol of Example 142, read-out: MYB IC50 (decrease in CJ mRNA levels)
[17] = Homo sapiens, 24 h, decrease in CJ mRNA, A673 or K562 cells, 24 hours treatment, RT-qPCR, read-out: HTT CJ IC50
[18] = RT-qPCR panel, canonical junction mRNA, compound concentration having 50% response in CJ decrease

SMILES	IC50 (MYB [1]; [7]) [nM]	IC50 (Target C [2]; [8]) [nM]	IC50 (Target C [3]; [7]) [nM]	IC50 (HTT [4]; [7]) [nM]	IC50 (HTT [5]; [10]) [nM]	IC50 (SMN2; [8]) [nM]	IC50 (MYB [6]; [11]) [nM]	IC50 (MYB [6]; [12]) [nM]	IC50 (HTT [5]; [17]) [nM]	AC50 (HTT [5]; [9]) [nM]	AC50 (MYB [6]; [9]) [nM]	IC50 (MYB [1]; [13]) [nM]	IC50 (Target C [2]; [14]) [nM]	IC50 (Target C [3]; [13]) [nM]	IC50 (HTT [4]; [13]) [nM]	IC50 (HTT [5]; [15]) [nM]	IC50 (SMN2; [14]) [nM]	IC50 (MYB [6]; [16]) [nM]	also measured
CN(c1ccc(-c2ccc(-c3cn[nH]c3)c3cn[nH]c23)nn1)[C@H]1C[C@]2(C)CC[C@](C)(C1)N2 [Compound 146]	< 100	< 100	< 100	< 100	< 100	< 100	100 to 1000	100 to 1000		< 100	100 to 1000								
COc1nc(-c2ccc(N(C)C3CC(C)(C)NC(C)(C)C3)nc2)ccc1-c1cnn(C)c1 [Compound 994]												1000 to 10000	100 to 1000	100 to 1000	100 to 1000	100 to 1000	1000 to 10000	100 to 1000	
COc1cc(-c2ccc(-c3ccc(N(C)[C@@H]4C[C@H]5CC[C@@H](C4)N5)nn3)c3[nH]ncc23)ccn1 [Compound 364, (exo)-N-{6-[4-(2-methoxypyridin-4-yl)-1H-indazol-7-yl]pyridazin-3-yl}-N-methyl-8-azabicyclo[3.2.1]octan-3-amine]	< 100	100 to 1000	< 100	< 100	< 100	< 100	100 to 1000	100 to 1000		< 100	< 100								
c1n[nH]cc1-c1ccc(-c2ccc(S[C@@H]3C[C@H]4CC[C@@H](C3)N4)nn2)c2[nH]ncc12 [Compound 221]	1000 to 10000	> 10000	1000 to 10000	1000 to 10000	> 10000	> 10000	> 10000	> 10000	> 10000	> 10000	> 10000								
c1n[nH]cc1-c1ccc(-c2ccc(N3CC4(CCNCC4)C3)nn2)c2[nH]ncc12 [Compound 229]	1000 to 10000	1000 to 10000	1000 to 10000	1000 to 10000	1000 to 10000	1000 to 10000	1000 to 10000	1000 to 10000	1000 to 10000	1000 to 10000	1000 to 10000								
c1cnn(-c2ccc(-c3cnc(N4CCC(NC5CC5)C4)nn3)c3cn[nH]c23)c1 (stereo not drawn) [Compound 548]																			IC50 (MYB [1]; Table 13A, 24 hours): > 10000 nM; IC50 (Target C [2]; [18]): > 10000 nM; IC50 (Target C [3]; Table 13A, 24 hours): 1000 to 10000 nM; IC50 (HTT [4]; Table 13A, 24 hours): 1000 to 10000 nM; IC50 (HTT [5]; RT-qPCR panel, canonical junction mRNA, compound concentration having 50% response in CJ decrease, read-out: HTT IC50 (decrease in CJ mRNA levels)): 1000 to 10000 nM; IC50 (SMN2; [18]): 1000 to 10000 nM; IC50 (MYB [6]; RT-qPCR panel, canonical junction mRNA, compound concentration having 50% response in CJ decrease, read-out: MYB IC50 (decrease in CJ mRNA levels)): > 10000 nM
COc1nc(-c2ccc(NC3CCNCC3)nc2)ccc1-n1cccn1 [Compound 987]												1000 to 10000	> 10000	1000 to 10000	> 10000	> 10000	1000 to 10000	> 10000	
COc1nc(-c2ccc(N(C)[C@H]3CCN[C@@H](C)C3)nn2)ccc1-n1cccn1 [Compound 908]												1000 to 10000	1000 to 10000	> 10000	1000 to 10000	> 10000	1000 to 10000	> 10000	
COc1nc(-c2ccc(N(C)[C@@H]3C[C@H]4CC[C@@H](C3)N4)nn2)ncc1-c1cn[nH]c1 [Compound 913]												1000 to 10000	1000 to 10000	1000 to 10000	1000 to 10000	1000 to 10000	1000 to 10000	1000 to 10000	
COc1nc(-c2ccc(N[C@@H]3C[C@H]4CC[C@@H](C3)N4)nn2)ccc1-n1cccn1 [Compound 948]												100 to 1000	1000 to 10000	100 to 1000	100 to 1000	100 to 1000	100 to 1000	1000 to 10000	
COc1nc(-c2ccc(OC3CC(C)(C)NC(C)(C)C3)nn2)ccc1-c1cn(C)nn1 [Compound 946]												1000 to 10000	> 10000	> 10000	1000 to 10000	1000 to 10000	100 to 1000	1000 to 10000	
COc1nc(-c2ccc(NC3CCNCC3)nn2)ccc1-c1cnn(C)c1 [Compound 925]												1000 to 10000	> 10000	1000 to 10000	1000 to 10000	1000 to 10000	100 to 1000	1000 to 10000	
COc1nc(-c2ncc(N(C)[C@@H]3C[C@H]4CC[C@@H](C3)N4)cn2)ccc1-c1cn[nH]c1 [Compound 997]												> 10000	> 10000	> 10000	> 10000	> 10000	> 10000	> 10000	
COc1nc(-c2ccc(N[C@@H]3C[C@H]4CC[C@@H](C3)N4)nn2)ccc1-c1cnn(C)n1 [Compound 942]												100 to 1000	1000 to 10000	100 to 1000	< 100	1000 to 10000	< 100	> 10000	
c1nc2c(-c3cn[nH]c3)ccc(-c3ccc(N4CCC5(CC4)CNC5)nn3)c2s1 [Compound 188]	> 10000	> 10000	> 10000	> 10000	> 10000	> 10000	> 10000	> 10000	> 10000	> 10000	> 10000								

The next lines start with results.

IC50 (MYB [1]; [7]) [nM]	IC50 (Target C [2]; [8]) [nM]	IC50 (Target C [3]; [7]) [nM]	IC50 (HTT [4]; [7]) [nM]	IC50 (HTT [5]; [10]) [nM]	IC50 (SMN2; [8]) [nM]	IC50 (MYB [6]; [11]) [nM]	IC50 (MYB [6]; [12]) [nM]	IC50 (HTT [5]; [17]) [nM]	SMILES	AC50 (HTT [5]; [9]) [nM]	AC50 (MYB [6]; [9]) [nM]	IC50 (MYB [1]; [13]) [nM]	IC50 (Target C [2]; [14]) [nM]	IC50 (Target C [3]; [13]) [nM]	IC50 (HTT [4]; [13]) [nM]	IC50 (HTT [5]; [15]) [nM]	IC50 (SMN2; [14]) [nM]	IC50 (MYB [6]; [16]) [nM]	also measured
100 to 1000	100 to 1000	100 to 1000	100 to 1000	100 to 1000	100 to 1000	100 to 1000	100 to 1000	100 to 1000	CN(C)C1CCN(c2ncc(-c3ccc(-c4cn[nH]c4)c4ncsc34)nn2)C1 (stereo not drawn) [Compound 413]	100 to 1000	100 to 1000								
100 to 1000	> 10000	1000 to 10000	1000 to 10000	> 10000	1000 to 10000	> 10000	> 10000	> 10000	CN1CCCC2(CCN2c2ccc(-c3ccc(-c4cn[nH]c4)c4ncsc34)nn2)C1 (stereo not drawn) [Compound 288]	> 10000	> 10000								
> 10000	> 10000	> 10000	> 10000	> 10000	> 10000	> 10000	> 10000	> 10000	c1n[nH]cc1-c1ccc(-c2ccc(N3CCCC4(CNC4)C3)nn2)c2[nH]ncc12 [Compound 251]	> 10000	> 10000								
> 10000	> 10000	> 10000	> 10000	> 10000	> 10000	> 10000	> 10000	> 10000	c1n[nH]cc1-c1ccc(-c2ccc(NC3CNC3)nn2)c2[nH]ncc12 [Compound 237]	> 10000	> 10000								
1000 to 10000	1000 to 10000	1000 to 10000	1000 to 10000	1000 to 10000	100 to 1000	1000 to 10000	1000 to 10000	1000 to 10000	CC(C)(C)NC1CCN(c2ccc(-c3ccc(-n4cccn4)c4[nH]ncc34)nn2)C1 (stereo not drawn) [Compound 380, N-tert-butyl-1-{6-[7-(pyrazol-1-yl)-1H-indazol-4-yl]pyridazin-3-yl}pyrrolidin-3-amine]	1000 to 10000	1000 to 10000								
1000 to 10000	> 10000	1000 to 10000	> 10000	> 10000	> 10000	> 10000	> 10000	> 10000	c1nc2c(-c3cn[nH]c3)ccc(-c3ccc(N4CCC45CCNC5)nn3)c2s1 (stereo not drawn) [Compound 277]	> 10000	> 10000								
